tested on: MDA-MB-231 human breast cancer cells; assay: Cell proliferation assay (CellTiter-Glo, 72 hours treatment); assay type: cell-based; conditions: Homo sapiens; MDA-MB-231 cells, 72 hours at 37° C., CellTiter-Glo; read-out: MDA-MB-231 cell proliferation assay (IC50)
In short: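 IC50 categories: under 100 nM +++, 100–1000 nM ++, above 1000 nM +, derived by sigmoidal curve fitting of CellTiter-Glo luminescence. Cells plated at 2,500 per well, dosed the following day and exposed 72 h at 37 °C versus DMSO control.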

`COc1cncc2c1[C@]1(O)[C@H](O)[C@H](CNCCF)[C@@H](c3ccccc3)[C@]1(c1ccc(C#N)cc1)O2` (racemic) [259F, Rac-4-((4bS,5R,6S,7S,7aR)-6-(((2-fluoroethyl)amino)methyl)-4b,5-dihydroxy-4-methoxy-7-phenyl-4b,5,6,7-tetrahydro-7aH-cyclopenta[4,5]furo[2,3-c]pyridin-7a-yl)benzonitrile] and `COc1cncc2c1[C@]1(O)[C@H](O)[C@H](CCN(C)C)[C@@H](c3ccccc3)[C@]1(c1ccc(C#N)cc1)O2` (racemic) [276F, Rac-4-((4bS,5R,6R,7S,7aR)-6-(2-(dimethylamino)ethyl)-4b,5-dihydroxy-4-methoxy-7-phenyl-4b,5,6,7-tetrahydro-7aH-cyclopenta[4,5]furo[2,3-c]pyridin-7a-yl)benzonitrile] fall in the same range of IC50: 0.1 to 1 µM for the first, 0.1 to 1 µM for the second.

`COCCN(C)C(=O)[C@H]1[C@@H](O)[C@@]2(O)c3c(OC)cncc3O[C@@]2(c2ccc(Br)cc2)[C@@H]1c1ccccc1` (racemic) [260F, rac-(4bS,5R,6R,7S,7aR)-7a-(4-bromophenyl)-4b,5-dihydroxy-4-methoxy-N-(2-methoxyethyl)-N-methyl-7-phenyl-4b,6,7,7a-tetrahydro-5H-cyclopenta[4,5]furo[2,3-c]pyridine-6-carboxamide] and `COCCNC(=O)[C@H]1[C@@H](O)[C@@]2(O)c3c(OC)cncc3O[C@@]2(c2ccc(Br)cc2)[C@@H]1c1ccccc1` (racemic) [262F, Rac-(4bS,5R,6R,7S,7aR)-7a-(4-bromophenyl)-4b,5-dihydroxy-4-methoxy-N-(2-methoxyethyl)-7-phenyl-4b,6,7,7a-tetrahydro-5H-cyclopenta[4,5]furo[2,3-c]pyridine-6-carboxamide] cannot be ordered by IC50: under 0.1 µM for the first, under 0.1 µM for the second.

`COc1cncc2c1[C@]1(O)[C@H](O)[C@H](C(=O)N3[C@@H]4CC[C@H]3COC4)[C@@H](c3ccccc3)[C@]1(c1ccc(Br)cc1)O2` (racemic) [264F, Rac-((1R,5S)-3-oxa-8-azabicyclo[3.2.1]octan-8-yl)((4bS,5R,6R,7S,7aR)-7a-(4-bromophenyl)-4b,5-dihydroxy-4-methoxy-7-phenyl-4b,6,7,7a-tetrahydro-5H-cyclopenta[4,5]furo[2,3-c]pyridin-6-yl)methanone] and `COc1cncc2c1[C@]1(O)[C@H](O)[C@H](C(=O)N3[C@@H]4COC[C@H]3C4)[C@@H](c3ccccc3)[C@]1(c1ccc(Br)cc1)O2` (racemic) [266F, Rac-((1R,5S)-3-oxa-6-azabicyclo[3.1.1]heptan-6-yl)((4bS,5R,6R,7S,7aR)-7a-(4-bromophenyl)-4b,5-dihydroxy-4-methoxy-7-phenyl-4b,6,7,7a-tetrahydro-5H-cyclopenta[4,5]furo[2,3-c]pyridin-6-yl)methanone] cannot be ordered by IC50: under 0.1 µM for the first, under 0.1 µM for the second.

First: COc1cncc2c1[C@]1(O)[C@H](O)[C@H](CN3[C@@H]4COC[C@H]3C4)[C@@H](c3ccccc3)[C@]1(c1ccc(C#N)cc1)O2 (racemic) [267F, Rac-4-((4bS,5R,6S,7S,7aR)-6-(((1R,5S)-3-oxa-6-azabicyclo[3.1.1]heptan-6-yl)methyl)-4b,5-dihydroxy-4-methoxy-7-phenyl-4b,5,6,7-tetrahydro-7aH-cyclopenta[4,5]furo[2,3-c]pyridin-7a-yl)benzonitrile]
Second: COc1cncc2c1[C@]1(O)[C@H](O)[C@H](C(=O)N3CC4CC(C3)O4)[C@@H](c3ccccc3)[C@]1(c1ccc(Br)cc1)O2 (racemic) [273F, Rac-(6-oxa-3-azabicyclo[3.1.1]heptan-3-yl)((4bS,5R,6R,7S,7aR)-7a-(4-bromophenyl)-4b,5-dihydroxy-4-methoxy-7-phenyl-4b,6,7,7a-tetrahydro-5H-cyclopenta[4,5]furo[2,3-c]pyridin-6-yl)methanone]
The IC50 of the first is higher: 0.1 to 1 µM for the first, under 0.1 µM for the second. The second is the more potent here.

First: COc1cncc2c1[C@]1(O)[C@@H]3OC(=O)N[C@@H]3[C@@H](c3ccccc3)[C@]1(c1ccc(C(F)F)cc1)O2 (racemic) [269F, rac-(3aR,4R,4aR,9bS,9cR)-4a-(4-(difluoromethyl)phenyl)-9b-hydroxy-9-methoxy-4-phenyl-3,3a,4,4a,9b,9c-hexahydro-2H-oxazolo[4″,5″:4′,5′]cyclopenta[1′,2′:4,5]furo[2,3-c]pyridin-2-one]
Second: COc1cncc2c1[C@]1(O)[C@H](O)[C@H](N)[C@@H](c3ccccc3)[C@]1(c1ccc(C(F)F)cc1)O2 (racemic) [270F, Rac-(4bS,5R,6R,7R,7aR)-6-amino-7a-(4-(difluoromethyl)phenyl)-4-methoxy-7-phenyl-5,6,7,7a-tetrahydro-4bH-cyclopenta[4,5]furo[2,3-c]pyridine-4b,5-diol]
The IC50 of the first is lower: under 0.1 µM for the first, 0.1 to 1 µM for the second. The first is the more potent here.

First: COc1cncc2c1[C@]1(O)[C@H](O)[C@H](C(=O)N(C)C)[C@@H](c3ccccc3)[C@]1(c1ccc(Cl)cc1)O2 (racemic) [271F, rac-(4bS,5R,6R,7S,7aR)-7a-(4-chlorophenyl)-4b,5-dihydroxy-4-methoxy-N,N-dimethyl-7-phenyl-4b,6,7,7a-tetrahydro-5H-cyclopenta[4,5]furo[2,3-c]pyridine-6-carboxamide]
Second: COc1cncc2c1[C@]1(O)[C@H](O)[C@H](C(=O)N(C)Cc3cccnc3)[C@@H](c3ccccc3)[C@]1(c1ccc(Br)cc1)O2 (racemic) [277F, Rac-(4bS,5R,6R,7S,7aR)-7a-(4-bromophenyl)-4b,5-dihydroxy-4-methoxy-N-methyl-7-phenyl-N-(pyridin-3-ylmethyl)-4b,6,7,7a-tetrahydro-5H-cyclopenta[4,5]furo[2,3-c]pyridine-6-carboxamide]
The IC50 of the first is higher: 0.1 to 1 µM for the first, under 0.1 µM for the second.

`COc1cncc2c1[C@]1(O)[C@@H]3OC(=O)C[C@@H]3[C@@H](c3ccccc3)[C@]1(c1ccc(Br)cc1)O2` (racemic) [275F, Rac-(3aR,4S,4aR,9bS,9cR)-4a-(4-bromophenyl)-9b-hydroxy-9-methoxy-4-phenyl-3,3a,4,4a,9b,9c-hexahydro-2H-furo[3″,2″:4′,5′]cyclopenta[1′,2′:4,5]furo[2,3-c]pyridin-2-one] and `COc1cncc2c1[C@]1(O)[C@H](O)[C@H](C(=O)N3CCC(F)(F)C3)[C@@H](c3ccccc3)[C@]1(c1ccc(Br)cc1)O2` (racemic) [279F, Rac-((4bS,5R,6R,7S,7aR)-7a-(4-bromophenyl)-4b,5-dihydroxy-4-methoxy-7-phenyl-4b,6,7,7a-tetrahydro-5H-cyclopenta[4,5]furo[2,3-c]pyridin-6-yl)(3,3-difluoropyrrolidin-1-yl)methanone] cannot be ordered by IC50: under 0.1 µM for the first, under 0.1 µM for the second.

`COc1cncc2c1[C@]1(O)[C@H](O)[C@H](C(=O)N3CCOCC3)[C@@H](c3ccccc3)[C@]1(c1ccc(C(F)(F)F)cc1)O2` (racemic) [281F, rac-((4bS,5R,6R,7S,7aR)-4b,5-dihydroxy-4-methoxy-7-phenyl-7a-(4-(trifluoromethyl)phenyl)-4b,6,7,7a-tetrahydro-5H-cyclopenta[4,5]furo[2,3-c]pyridin-6-yl)(morpholino)methanone] and `COc1cncc2c1[C@]1(O)[C@H](O)[C@H](C(=O)N3CCN(C)CC3)[C@@H](c3ccccc3)[C@]1(c1ccc(C(F)(F)F)cc1)O2` (racemic) [283F, rac-((4bS,5R,6R,7S,7aR)-4b,5-dihydroxy-4-methoxy-7-phenyl-7a-(4-(trifluoromethyl)phenyl)-4b,6,7,7a-tetrahydro-5H-cyclopenta[4,5]furo[2,3-c]pyridin-6-yl)(4-methylpiperazin-1-yl)methanone] fall in the same range of IC50: 0.1 to 1 µM for the first, 0.1 to 1 µM for the second.

`COc1cncc2c1[C@]1(O)[C@H](O)[C@H](C(=O)NCC(F)F)[C@@H](c3ccccc3)[C@]1(c1ccc(C(F)(F)F)cc1)O2` (racemic) [285F, Rac-(4bS,5R,6R,7S,7aR)—N-(2,2-difluoroethyl)-4b,5-dihydroxy-4-methoxy-7-phenyl-7a-(4-(trifluoromethyl)phenyl)-4b,6,7,7a-tetrahydro-5H-cyclopenta[4,5]furo[2,3-c]pyridine-6-carboxamide] and `COc1cncc2c1[C@]1(O)C(CN3CCOCC3)C[C@@H](c3ccccc3)[C@]1(c1ccc(C(F)(F)F)cc1)O2` (mixture of isomers) [289F, Rac-(4bR,7S,7aR)-4-methoxy-5-(morpholinomethyl)-7-phenyl-7a-(4-(trifluoromethyl)phenyl)-5,6,7,7a-tetrahydro-4bH-cyclopenta[4,5]furo[2,3-c]pyridin-4b-ol] fall in the same range of IC50: 0.1 to 1 µM for the first, 0.1 to 1 µM for the second.

First: COc1cncc2c1[C@]1(O)[C@](O)(CN3CCOCC3)C[C@@H](c3ccccc3)[C@]1(c1ccc(C#N)cc1)O2 (racemic) [287F, Rac-4-((4bS,5R,7S,7aR)-4b,5-dihydroxy-4-methoxy-5-(morpholinomethyl)-7-phenyl-4b,5,6,7-tetrahydro-7aH-cyclopenta[4,5]furo[2,3-c]pyridin-7a-yl)benzonitrile]
Second: COc1nc(Cl)cc2c1[C@]1(O)[C@H](O)[C@H](CN)[C@@H](c3ccccc3)[C@]1(c1ccc(C#N)cc1)O2 (racemic) [294F, Rac-4-((5aR,6S,7S,8R,8aS)-7-(aminomethyl)-3-chloro-8,8a-dihydroxy-1-methoxy-6-phenyl-6,7,8,8a-tetrahydro-5aH-cyclopenta[4,5]furo[3,2-c]pyridin-5a-yl)benzonitrile]
The IC50 of the first is higher: over 1 µM for the first, under 0.1 µM for the second.

`COc1nc(Cl)cc2c1[C@]1(O)[C@H](O)[C@H](CN)[C@@H](c3ccccc3)[C@]1(c1ccc(Br)cc1)O2` (racemic) [292F, Rac-(5aR,6S,7S,8R,8aS)-7-(aminomethyl)-5a-(4-bromophenyl)-3-chloro-1-methoxy-6-phenyl-5a,6,7,8-tetrahydro-8aH-cyclopenta[4,5]furo[3,2-c]pyridine-8,8a-diol] and `COc1nc(C#N)cc2c1[C@]1(O)[C@H](O)[C@H](CN)[C@@H](c3ccccc3)[C@]1(c1ccc(C#N)cc1)O2` (racemic) [293F, Rac-(5aR,6S,7S,8R,8aS)-7-(aminomethyl)-5a-(4-cyanophenyl)-8,8a-dihydroxy-1-methoxy-6-phenyl-5a,7,8,8a-tetrahydro-6H-cyclopenta[4,5]furo[3,2-c]pyridine-3-carbonitrile] cannot be ordered by IC50: under 0.1 µM for the first, under 0.1 µM for the second.
